Assay results reported in article PMC7806715, “Discovery of small molecules targeting the tandem tudor domain of the epigenetic factor UHRF1 using fragment-based ligand discovery” (Scientific Reports, 2021).

Experiments:
UHRF1-TTD = biological target: T1, UHRF1-TTD (Homo sapiens, UniProt Q96T88); test: Thermal shift assay (TSA) of TTD; assay type: binding; settings: compound at 500 μM; untagged TTD, 150 mM NaCl; mean ± S.D., n=3
T1 construct: Using the isolated His6-TTD (aa 123–283) we performed a thermal shift assay; His6 (N, cleaved yes); made in house; host or cells: Rosetta (DE3) E. coli, pMCSG7
T1 sequence (Q96T88 123-283): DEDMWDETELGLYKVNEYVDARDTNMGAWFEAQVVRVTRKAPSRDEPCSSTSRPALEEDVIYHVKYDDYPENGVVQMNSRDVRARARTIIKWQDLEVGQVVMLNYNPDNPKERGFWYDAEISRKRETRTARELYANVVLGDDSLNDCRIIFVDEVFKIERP
Method: We used three different assays in parallel to screen a ~ 2300-fragment library to identify hits that bind to TTD or inhibit its activities. The first screening method was a direct binding assay, which generally serves as the basis for most fragment screening. Using the isolated His6-TTD (aa 123–283) we performed a thermal shift assay (TSA) to determine the change in melting temperature upon fragment binding. The change in protein melting temperature (ΔTm) caused by each fragment was calculated by comparison to the DMSO controls on the same plate.
The fragment screen was carried out on LightCycler 480 Multiwell Plates 384 (Roche). The TSA mix contains 0.15 mg/ml of His6-TTD, 10 × of SYPRO Orange dye (ThermoFisher) in the TSA buffer (50 mM sodium phosphate, pH = 7, 300 mM NaCl). During the screen, 5 µl of TSA mix was dispensed into each well, and 100 nl of chemical fragments stock (10 mM in DMSO) was added to each well by pintool using Tecan Freedom Evo liquid handler to make the final compound concentration 200 µM. After 1 h of incubation at room temperature, the increase of fluorescence at 580 nm (excitation 465 nm) during the 20–90 degree melting (0.04 °C/s) was measured by LightCycler 480 Instrument II (Roche). For the fragment screen, on seven of the library plates there were 32-wells of DMSO control, while there were 8-wells of DMSO control in the last plate. […] Using un-tagged TTD for TSA provide closer resemblance to the native state of TTD. The lower salt concentration (150 mM NaCl) also allowed better comparison across three different assays during the dose-dependent SAR studies as both AlphaScreen and TR-FRET assay also use buffers containing 150 mM NaCl.

[1] = biological target: T2, His6-UHRF1-full length vs. H3K9me3 peptide (Homo sapiens, UniProt Q96T88); test: TR-FRET assay: His6-UHRF1-FL binding to H3K9me3 peptide; assay type: biochemical; settings: dose-response, side by side with His6-TTD
T2 construct: made in house; host or cells: Rosetta (DE3) E. coli, pMCSG7
T2 sequence (Q96T88 1-793): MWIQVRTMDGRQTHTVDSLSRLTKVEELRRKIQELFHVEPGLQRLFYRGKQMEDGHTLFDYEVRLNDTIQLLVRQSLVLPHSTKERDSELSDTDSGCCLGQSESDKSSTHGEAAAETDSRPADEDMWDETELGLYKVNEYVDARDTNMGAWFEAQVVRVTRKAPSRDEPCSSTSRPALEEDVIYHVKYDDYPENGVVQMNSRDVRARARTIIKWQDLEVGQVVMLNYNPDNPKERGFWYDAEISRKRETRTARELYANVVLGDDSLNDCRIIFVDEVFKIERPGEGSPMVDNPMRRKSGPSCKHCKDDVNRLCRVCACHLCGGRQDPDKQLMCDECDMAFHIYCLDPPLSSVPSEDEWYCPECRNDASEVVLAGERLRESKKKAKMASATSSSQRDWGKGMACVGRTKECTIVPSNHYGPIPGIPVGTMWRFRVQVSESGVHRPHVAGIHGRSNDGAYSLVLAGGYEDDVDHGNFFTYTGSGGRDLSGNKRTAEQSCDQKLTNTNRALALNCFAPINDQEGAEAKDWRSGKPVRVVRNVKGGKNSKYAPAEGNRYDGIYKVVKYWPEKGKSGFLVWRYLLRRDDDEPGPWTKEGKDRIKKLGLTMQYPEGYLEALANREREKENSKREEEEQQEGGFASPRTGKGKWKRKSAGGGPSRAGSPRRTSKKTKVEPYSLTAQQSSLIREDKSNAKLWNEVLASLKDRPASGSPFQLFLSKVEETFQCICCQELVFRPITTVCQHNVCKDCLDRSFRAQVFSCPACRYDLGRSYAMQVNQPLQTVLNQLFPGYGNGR
Method: The fragment screen was carried out on low volume 384-well white plates (Corning 4512) and the assay was performed at room temperature. The TR-FRET reagent mix contained 200 nM of biotinylated-H3K9me3 peptide (Anaspec), 250 nM of His6-TTD, 25 nM of streptavidin-d2 (CisBio), and 1 × anti-6His-Tb cryptate Gold (Cisbio) in TR-FRET buffer (50 mM sodium phosphate, pH 7, 150 mM NaCl, 1 mM DTT, and 0.1% Triton-X-100). During the screen, 5 μl of TR-FRET reagent mix was dispensed into each well, and 100 nl of chemical fragments stock (10 mM in DMSO) was added to each well by pintool using Tecan Freedom Evo liquid handler to make the final compound concentration 196 μM. After 1 h of incubation, the fluorescent signals at 665 nm and 620 nm of each plate were measured by the Tecan Infinite M1000 plate reader (excitation 340 nm, 60 μs lag time, and 500 μs integration time) and the TR-FRET signal was calculated by the ratio of 665 nm/620 nm fluorescent signal. For the fragment screen, on seven of the library plates there were 32-wells of DMSO control, while there were 8-wells of DMSO control in the last plate. The TR-FRET assays for the interactions between His6-TTD-PHD and His6-UHRF1-FL binding to biotinylated-H3K9me3 (1-20) peptide were similar to the assay for His6-TTD. […]

[2] = biological target: His-USP7-UBL1/2 (control protein) (Homo sapiens, UniProt Q93009); test: Intrinsic tryptophan fluorescence of control protein; assay type: binding; settings: 3.2 µM protein
His-USP7-UBL1/2 (control protein), sequence (Q93009 560-776 limits assumed): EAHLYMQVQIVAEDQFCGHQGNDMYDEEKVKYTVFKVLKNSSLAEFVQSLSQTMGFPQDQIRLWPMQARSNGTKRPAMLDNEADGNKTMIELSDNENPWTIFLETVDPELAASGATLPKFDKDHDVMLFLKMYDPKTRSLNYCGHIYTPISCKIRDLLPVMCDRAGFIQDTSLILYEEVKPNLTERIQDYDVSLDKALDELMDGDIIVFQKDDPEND

Cc1ccnc(C)c1 [2,4-lutidine]
ΔTm at 500 µM (UHRF1-TTD): 2.04 ± 0.01 °C
inhibition of His6-UHRF1-FL interaction with H3K9me3 peptide (in words) [1]: only weakly inhibits
effect on tryptophan fluorescence of control protein (in words) [2]: did not inhibit
